From BindingDB's records for PubMed 37122541 (Emory University, 2023) come the findings set out here.

pIC50: −log10 of the molar value.

The test has as its target rRNA adenine N-6-methyltransferase ErmC (Staphylococcus aureus). As to the kind of experiment: Inhibition of Staphylococcus aureus ErmC methyltransferase.

Consider `CC(C)c1ccc(NC(=S)N/N=C/c2cc(Cl)cc(Cl)c2O)cc1`, for which the pIC50 was 6.35.
